{
  "source": "patent US8709420B2",
  "about": "(GlaxoSmithKline Intellectual Property Limited, priority 2010, dated 2014)",
  "key": {"[1]": {"tested_on": "KHOS osteosarcoma cell line", "type": "cell-based", "experimental": "(§1) Materials: The cells were cultured at 37° C. in 5% CO2 in a-MEM (Multicell; Wisent, Inc., St. Bruno, Quebec, Canada) with 10% fetal bovine serum (FBS; Life Technologies, Grand Island, N.Y.) and 1% antibiotic mixture, containing 10000 IU penicillin and 10000 μg/ml streptomycin (Multicell; Wisent, Inc., St. Bruno, Quebec, Canada). Trypsin-EDTA, containing 0.05% trypsin and 0.53 mM EDTA was also purchased from Multicell; Wisent, Inc., St. Bruno, Quebec, Canada.\n(§2) Procedure: A total of 20,000 cells were plated in each well of 48 well-plates and incubated at 37° C. in 5% CO2. After 48 h, the cells were treated with various concentrations of drugs. After 72 h of treatment, the cell viability was determined by alamar blue assay."}, "[2]": {"tested_on": "RD rhabdomyosarcoma cell line", "type": "cell-based", "experimental": "as §1, §2"}, "[3]": {"tested_on": "Rh30 rhabdomyosarcoma cell line", "type": "cell-based", "experimental": "as §1, §2"}, "NB12 xenograft": {"tested_on": "NB12 xenograft", "test": "NB12 TIC xenograft model", "type": "in vivo, NOD/SCID mice", "conditions": "for tumor growth compared to control: daily oral gavage, TP 1.0 mg/Kg, PZ 150 mg/Kg, TP+PZ both", "experimental": "(§3) 1×10^6 SK-N-BE(2) cells or 30,000 NB12 cells were implanted subcutaneously into the inguinal fat pad of each of non-obese diabetic/severe combined immune deficient (NOD/SCID) mice. […] The criteria for end point were tumor sizes exceeding 2.0 cms in diameter or animals showing signs of morbidity. The tumor sizes were measured on a daily basis until the end point or sacrifice. The long (D) and short diameters (d) were measured with calipers. Tumor volume (cm^3) was calculated as V=0.5×D×d^2. When end point was reached, the animals were sacrificed by cervical dislocation. Tumors were excised and were fixed in 10% formalin solution."}, "[4]": {"tested_on": "SH-SY5Y neuroblastoma cell line", "test": "In-vitro cytotoxicity, Alamar Blue cell viability", "type": "cell-based", "conditions": "72 h", "description": "(§4) SK-N-BE(2) (MYCN amplified) and SH-SY5Y (non-MYCN amplified neuroblastoma cell lines) were obtained from American Type Culture Collection (ATCC) (Manassas, Va.); BE(2)-c sub-clone of SK-N-BE(2) was obtained from Dr. Michelle Haber (Children's Cancer Institute for Medical Research, Lowry Cancer Research Centre, Randwick, Australia); Human Umbilical Vein Endothelial Cells (HUVECs) were obtained from Dr. Herman Yeger (The Hospital for Sick Children, Toronto, Ontario, Canada) and Tumor Initiating (TIC) cell lines NB12 and NB88, were obtained from Dr. David Kaplan (The Hospital for Sick Children, Toronto, Ontario, Canada). TICs NB12 and NB88 were isolated from the bone marrow metastases of relapsed high-risk neuroblastoma patients. Neuroblastoma cell lines SK-N-BE(2) and SH-SY5Y were grown in alpha-MEM containing 10% fetal bovine serum and 1% antibiotic mixture in humidified atmosphere at 37° C. with 5% CO2. NB12 and NB 88 were cultured as described previously.\n(§5) Cell viability was determined by Alamar Blue assay. Alamar blue (10% of total volume was added to each well three hours prior to fluorometric detection). Fluorometric detection was performed using the SPECTRAmax gemini Spectrophotometer at excitation wavelength of 540 nm and emission wavelength of 590 nm."}, "[5]": {"tested_on": "SK-N-BE(2) neuroblastoma cell line", "test": "In-vitro cytotoxicity, Alamar Blue cell viability", "type": "cell-based", "conditions": "for IC50: Homo sapiens, SKNBE2, 72 h", "description": "as §4, §5"}, "Rh30 xenograft": {"tested_on": "Rh30 xenograft", "test": "RH30 rhabdomyosarcoma mouse xenograft model", "conditions": "for tumor growth rate: daily oral up to 56 days, pazopanib 150 mg/Kg, LDM topotecan 1.0 mg/kg, combination both"}, "[6]": {"test": "Pharmacokinetics of topotecan and pazopanib in non-tumor bearing animals", "type": "in vivo, mice", "experimental": "Non-tumor bearing animals were randomized into four groups (n=3): Control, PZ, TP and TP+PZ. The doses of the drugs were the same as for the inguinal xenograft and metastatic models described above.\nAfter single drug administration, the saphenous vein blood samples (30 μl) were collected in heparinized microcentrifuge tubes at 30 min, 1 h, 2 h, 4 h, 8 h, 12 h, 18 h and 24 h as per the Lab Animal Services protocol. Plasma was immediately isolated after blood collection by centrifugation. For the topotecan assay, 10 μl plasma was immediately precipitated with 20 μl methanol and centrifuged. The supernatant and rest of the plasma were stored at […] until analysis.\n30 μl of supernatant was injected into the HPLC system, which consisted of Phenomenox C18 (Luna; 150×4.6 mm; particle size 5 microns) column, UV detector (267 nm). The mobile phase was 50:50 mixture of 10 mM potassium phosphate and methanol, with flow rate 1.0 ml/min. The calibration standards were 5, 10, 50, 100 and 200 μg/ml.\nAssay of topotecan: Prior to analysis, the previously prepared 20 μl methanolic extract was mixed with 50 μl of internal standard solution (5 ng/ml d6 topotecan dissolved 1% formic acid in acetonitrile). The mixture was then centrifuged and the supernatant was transferred to auto-sampler vials.\nThe LC/MS system consisted of an HPLC (Agilent Infinity 1290), Column (Kinetex HILIC, 2.6u, 100A, 50×4.6 mm) and a mass spectrometer (Sciex 5500-QTrap). The analytes were eluted by gradient flow. Mobile phase A was water:actonitrile (10:90) and mobile phase B was 10 mM ammonium acetate (pH 3.2). The mobile phase ratio was 5% A for 0-2 min, 20% A for 4-6 min and 5% A for 8-10 min at a flow rate 0.5 ml/min. The samples were analyzed by positive ion electrospray ionization technique in multiple reaction monitoring modes. The following mass transitions were monitored: 422.2 to 377 m/z, (topotecan M+H) and 428.2 to 377 m/z (topotecan d6 M+H). The calibration standard range was 0.5 ng/ml to 10 ng/ml."}, "SK-N-BE(2) xenograft": {"tested_on": "SK-N-BE(2) xenograft", "test": "SK-N-BE(2) neuroblastoma xenograft model", "type": "in vivo, NOD/SCID mice", "conditions": "for survival compared to control: daily oral gavage 56 days, TP 1.0 mg/Kg topotecan, PZ 150 mg/Kg pazopanib, TP+PZ both", "experimental": "as §3\nIn the group of animals implanted with SK-N-BE(2) cells palpable tumors started appearing approximately two weeks after cell implantation and took an additional week to reach 0.5 cm in diameter, after which the treatment was started. The effect of treatment was assessed by measuring regression of tumors and by survival times. Drugs were administered daily over a period of 56 days, and the animals belonging to the TP+PZ group were also retreated from the 103rd day to evaluate the impact of resuming treatment on reversing drug resistance. Retreatment was continued until the 125th day, after which the mice were sacrificed."}},
  "note": "Like-named read-outs stand apart in the source and are kept apart here.",
  "data": [
    {"compound": "Cc1ccc(Nc2nccc(N(C)c3ccc4c(C)n(C)nc4c3)n2)cc1S(N)(=O)=O", "note": "[pazopanib, 5-[[4-[(2,3-dimethyl-2H-indazol-6-yl)methylamino]-2-pyrimidinyl]amino]-2-methylbenzenesulfonamide]", "values": [
      {"measurement": "cell viability / cytotoxicity", "setting": "[1]", "result": "did not show cytotoxicity"},
      {"measurement": "cell viability / cytotoxicity", "setting": "[2]", "result": "did not show cytotoxicity"},
      {"measurement": "cell viability / cytotoxicity", "setting": "[3]", "result": "did not show cytotoxicity"},
      {"measurement": "tumor growth compared to control", "setting": "NB12 xenograft", "result": "No significant difference"},
      {"measurement": "viability of SH-SY5Y", "setting": "[4]; up to 5000 ng/ml", "result": "did not affect the viabilities"},
      {"measurement": "viability of SK-N-BE(2)", "setting": "[5]; up to 5000 ng/ml, 72 h", "result": "did not affect the viabilities"},
      {"measurement": "tumor growth rate", "setting": "Rh30 xenograft", "result": "delayed the tumor growth rate"},
      {"measurement": "time optimal plasma concentration of pazopanib was maintained", "setting": "[6]; PZ group", "result": "at least 18 h"},
      {"measurement": "time to peak plasma concentration of pazopanib", "setting": "[6]; PZ group, single oral 150 mg/Kg pazopanib", "result": 2, "unit": "h"},
      {"measurement": "time optimal plasma concentration of pazopanib was maintained", "setting": "[6]; TP+PZ group", "result": "at least 18 h"},
      {"measurement": "time to peak plasma concentration of pazopanib", "setting": "[6]; TP+PZ group, single oral 150 mg/Kg pazopanib+1.0 mg/Kg topotecan", "result": 2, "unit": "h"},
      {"measurement": "survival compared to control", "setting": "SK-N-BE(2) xenograft", "result": "significantly enhanced survival"}
    ]},
    {"compound": "CC[C@@]1(O)C(=O)OCc2c1cc1n(c2=O)Cc2cc3c(CN(C)C)c(O)ccc3nc2-1", "note": "[topotecan]", "values": [
      {"measurement": "cell viability / cytotoxicity", "setting": "[1]; 72 h treatment", "result": "dose-dependent reduction"},
      {"measurement": "cell viability / cytotoxicity", "setting": "[2]; 72 h treatment", "result": "dose-dependent reduction"},
      {"measurement": "cell viability / cytotoxicity", "setting": "[3]; 72 h treatment", "result": "dose-dependent reduction"},
      {"measurement": "survival compared to control and PZ groups", "setting": "NB12 xenograft; daily oral gavage until day 83, P<0.005", "result": "significantly enhanced"},
      {"measurement": "tumor growth compared to control", "setting": "NB12 xenograft", "result": "significantly reduced"},
      {"measurement": "IC50", "setting": "[4]; Homo sapiens, SH-SY5Y, topotecan alone", "result": 0.0053, "unit": "µg/mL"},
      {"measurement": "IC50", "setting": "[5]; topotecan alone", "result": 0.065, "unit": "µg/mL"},
      {"measurement": "IC50", "setting": "[5]; topotecan with addition of 5000 ng/ml pazopanib, P=0.046", "result": 0.0351, "unit": "µg/mL"},
      {"measurement": "efficacy relative to PZ, TP+PZ and intermittent dosing", "setting": "Rh30 xenograft; LDM topotecan 1.0 mg/kg daily oral", "result": "less effective"},
      {"measurement": "tumor growth rate", "setting": "Rh30 xenograft", "result": "delayed the tumor growth rate"},
      {"measurement": "trough concentration of topotecan", "setting": "[6]; TP group", "result": 0.77, "unit": "ng/mL"},
      {"measurement": "peak plasma concentration of topotecan", "setting": "[6]; TP group, single oral 1.0 mg/Kg topotecan", "result": 19.75, "unit": "ng/mL"},
      {"measurement": "peak plasma concentration of topotecan", "setting": "[6]; TP+PZ group", "result": 33.05, "unit": "ng/mL"},
      {"measurement": "trough concentration of topotecan", "setting": "[6]; TP+PZ group", "result": 2.79, "unit": "ng/mL"},
      {"measurement": "tumor growth rate, TP versus PZ group", "setting": "SK-N-BE(2) xenograft; TP 1.0 mg/Kg vs PZ 150 mg/Kg, daily oral", "result": "No significant difference"},
      {"measurement": "survival compared to control", "setting": "SK-N-BE(2) xenograft", "result": "significantly enhanced survival"}
    ]}
  ]
}
